A word on the viability, T/C: it is the ratio of treated to control. What is called IC50 is the concentration that inhibits the measured activity by half.

In this test the test system is HOP-62 complex spheroids with HUVEC/MSC, viability. Briefly: Anticancer human tumor HOP-62 cell line growth inhibition [RAS].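 For all read-outs here: spheroids exposed to agents for seven days before readout.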 The settings on record: for viability, T/C: stronger effect = lower value. The source says: RAS pathway inhibitors in Combinations in Complex Spheroids
A high-throughput screen of multi-cell type tumor spheroids was designed to identify active combinations of RAS pathway inhibitors and targeted small molecules. Complex spheroids include a stromal component modeled by human endothelial cells (HUVEC) and fibroblasts modeled by human mesenchymal stem cells (MSCs). The concentration ranges selected for each drug and investigational agent were based upon clinically achievable concentrations if the clinical Cmax of the agent was known.
Compounds. The drugs and investigational agents: abemaciclib (NSC768073), cobimetinib (NSC768068), divarasib (GDC6063, NSC841802), docetaxel (NSC628503), GDC-1971 (RLY-1971, NSC841576), gemcitabine (NSC613327), inavolisib (NSC800729), ipatasertib (NSC767898), KB-0742 (NSC834161), MRTX-1133 (NSC836407), osimertinib (NSC779217), RMC-4630 (NSC839698), RMC-6236 (NSC851965), RMC-6291 (NSC852671), Ro-3306 (NSC812927), sapanisertib (NSC764658), SN-38 (NSC673596), staurosporine (NSC755774), SY5609 (NSC837396), and tovorafenib (DAY101, NSC766906), were obtained from the National Cancer Institute (NCI) Developmental Therapeutics Program Chemical Repository. The FDA-approved anticancer drug set is available from the NCI Developmental Therapeutics Program. […] The stock solutions were prepared in dimethyl sulfoxide (DMSO, Sigma-Aldrich, St. Louis, MO, cat. D2650) at 800-fold the tested concentration and stored at -70 degrees C prior to their use. All drugs and investigational agents were tested over a range starting from a high concentration at or near the clinical Cmax and decreasing in half-log increments. If the clinical Cmax for an agent had not been determined, the highest concentration tested was 10 microM.
Cell Culture. All cells were maintained in an incubator at 37 degrees C and 5% CO2 with 95% humidity. The PDC lines were cultured according to standard operating procedures established by the NCI PDMR. All PDCs were thawed and cultured in Matrigel-coated flasks prepared with a working solution of 1X Ham's F-12 nutrient mix, without supplementation (Invitrogen, Waltham, MA, cat. 11765054), 100 U/mL penicillin-streptomycin (Invitrogen, cat. 15140122), and 2.5% Matrigel (Corning Inc., Corning, NY, cat. 354248) for the first three passages. The 362531-283-R-J2-PDC and 782815-120-R-J1-PDC lines were cultured in 6C/Colon 1B media, which includes advanced DMEM/F-12 (Thermo Fisher Scientific, cat. 12634028), 10 mM HEPES (Thermo Fisher Scientific, cat. 15630080), 1X GlutaMAX supplement (Thermo Fisher Scientific, cat. 35050061), 0.1 mg/mL primocin (InvivoGen, San Diego, CA, cat. ant-pm-2), 10% defined fetal bovine serum, heat inactivated (HyClone Laboratories Inc., Logan, UT, cat. SH30070.03HI), 50% L-WRN conditioned media (ATCC, cat. CRL-3276), 1.25 mM N-Acetyl-L-cysteine (Sigma-Aldrich, cat. A9165), 10 mM nicotinamide (Sigma-Aldrich, cat. N0636), 1X B-27 supplement (Thermo Fisher Scientific, cat. 17504044), 1X N-2 supplement (Thermo Fisher Scientific, cat. 17502048), 50 ng/mL human EGF (Thermo Fisher Scientific, cat. PHG0311), and 10 microM Y-27632 dihydrochloride (Tocris Bioscience, cat. 1254). The K12877-001-R-J1-PDC line was cultured in 6I media, which includes all 6C/Colon 1B media plus 10 ng/mL human FGF-10 (PeproTech, cat. 100-26), 1 ng/mL human FGF-2 (PeproTech, cat. 100-18B), 1 µM prostaglandin E2 (Tocris Bioscience, cat. 2296), […] hydrocortisone (Sigma-Aldrich, cat. H4001), and […] bovine insulin (Sigma-Aldrich, cat. I6634). The K86415-001-R-J1-PDC line was cultured in 6D media, which includes all 6C/Colon 1B media components minus the L-WRN conditioned media. The 485176-168-R4-J1-PDC was cultured in PANC media, which includes all 6C/Colon 1B media plus 100 ng/mL human FGF-10 (PeproTech, cat. 100-26), 500 nM SB-431542 (Selleckchem, cat. S1067), and 10 nM gastrin (Tocris Bioscience, cat. 3006). […]

[1] abbreviates: compound alone, run of 07/09/2024.

“And” between values parts separate entries of the source, which are not always exact repeats. Identical values can stand only once.

As to `C#Cc1c(F)ccc2cc(O)cc(-c3ncc4c(N5CC6CCC(C5)N6)nc(OCC56CCCN5CC(F)C6)nc4c3F)c12` (configuration not stated), the viability, T/C is 107% [middle of 8 runs] (compound 0.0316 µM); 113% [middle of 8 runs] (compound 0.1 µM); 109% [middle of 8 runs] (compound 0.316 µM); 100% [middle of 8 runs] (compound 1 µM); 81.1% [middle of 8 runs] (compound 3.16 µM); 48% [middle of 8 runs] (compound 10 µM).
`C=CC(=O)N1CCN(c2nc(OCC3CCCN3C)nc3c(F)c(-c4nc(N)cc(C)c4C(F)(F)F)c(Cl)cc23)C(C)C1` (configuration not stated): the viability, T/C is 66.5% (compound 0.01 µM, compound 0.0316 µM); 64.5% (compound 0.01 µM, compound 0.1 µM); 71% (compound 0.01 µM, compound 0.316 µM); 61.3% (compound 0.01 µM, compound 1 µM); 68.3% (compound 0.0316 µM, compound 0.00316 µM); 62.3% (compound 0.0316 µM, compound 0.01 µM). The viability, T/C (compound 0.0316 µM, compound 0.1 µM) is 66.5%; the viability, T/C (compound 0.0316 µM, compound 0.316 µM) is 64%; the viability, T/C (compound 0.0316 µM, compound 1 µM) was 64.2%; the viability, T/C (compound 0.0316 µM) is 67.5%; the viability, T/C (compound 0.1 µM, compound 0.00316 µM) is 59.4%; the viability, T/C (compound 0.1 µM, compound 0.01 µM) is 63.4%. Besides, the viability, T/C (compound 0.1 µM, compound 0.0316 µM) was 57.5%; the viability, T/C (compound 0.1 µM, compound 0.316 µM) is 66.9%; the viability, T/C (compound 0.1 µM, compound 1 µM) was 62.5%; the viability, T/C (compound 0.1 µM) is 64.9%; the viability, T/C (compound 0.316 µM, compound 0.00316 µM) was 69.2%; the viability, T/C (compound 0.316 µM, compound 0.01 µM) was 68%. For the same compound, the viability, T/C runs as follows: (compound 0.316 µM, compound 0.0316 µM) 59.4%; (compound 0.316 µM, compound 0.1 µM) 66%; (compound 0.316 µM, compound 1 µM) 68%; (compound 0.316 µM) 66.3%; (compound 1 µM, compound 0.00316 µM) 76.3%; (compound 1 µM, compound 0.01 µM) 65.6%. Further, the viability, T/C (compound 1 µM, compound 0.0316 µM) is 64%; the viability, T/C (compound 1 µM, compound 0.1 µM) is 66.4%; the viability, T/C (compound 1 µM, compound 0.316 µM) was 65%; the viability, T/C (compound 1 µM) is 67.3% [middle of 13 runs]. Further, the half-inhibitory concentration (IC50) is more than 1000 nM (compound alone, run of 07/15/2024) and more than 1000 nM (curve of compound).
On to `C=CC(=O)Nc1cc(Nc2nccc(-c3cn(C)c4ccccc34)n2)c(OC)cc1N(C)CCN(C)C`, for which the viability, T/C by setting is: (compound 0.00316 µM) 103% [middle of 4 runs]; (compound 0.01 µM) 101% [middle of 4 runs]; (compound 0.0316 µM) 108% [middle of 4 runs]; (compound 0.1 µM) 110% [middle of 4 runs]; (compound 0.316 µM) 110% [middle of 4 runs]; (compound 1 µM) 103% [middle of 4 runs]. In addition, the IC50 (curve of compound) was more than 1000 nM.
As for `CC(C)NCC(C(=O)N1CCN(c2ncnc3c2C(C)CC3O)CC1)c1ccc(Cl)cc1` (configuration not stated), the viability, T/C is, setting by setting: (compound 0.0316 µM) 105% [middle of 4 runs]; (compound 0.1 µM) 105% [middle of 4 runs]; (compound 0.316 µM) 98.4% [middle of 4 runs].
With `CC(C)n1nc(-c2ccc3oc(N)nc3c2)c2c(N)ncnc21`, the viability, T/C is, setting by setting: (compound 0.000316 µM) 105% [middle of 4 runs]; (compound 0.001 µM) 97.4% [middle of 4 runs]; (compound 0.00316 µM) 93.7% [middle of 4 runs]; (compound 0.01 µM) 98.7% and 65.8% and 66.1%.
As for `CCN1CCN(Cc2ccc(Nc3ncc(F)c(-c4cc(F)c5nc(C)n(C(C)C)c5c4)n3)nc2)CC1`, the viability, T/C reads like this: (compound 0.00316 µM) 103% [middle of 4 runs]; (compound 0.01 µM) 104% [middle of 4 runs]; (compound 0.0316 µM) 103% [middle of 4 runs]. Besides, the half-inhibitory concentration (IC50) (curve of compound) was more than 1000 nM.
`CCc1c2c(nc3ccc(O)cc13)-c1cc3c(c(=O)n1C2)COC(=O)[C@]3(O)CC`: the viability, T/C by setting is: (compound 0.003 µM) 22.4% [middle of 4 runs]; (compound 0.00949 µM) 10.6% [middle of 4 runs]; (compound 0.03 µM) 7.82% [middle of 4 runs]; (compound 0.0949 µM) 5.87% [middle of 4 runs]; (compound 0.3 µM) 3.8% [middle of 4 runs]. Moreover, under “curve of compound”, the IC50 was 1.34 nM [middle of 4 runs].
With `CCn1c(-c2cc(N3CCN(C)CC3)cnc2C(C)OC)c2c3cc(ccc31)-c1csc(n1)CC(NC(=O)C1CC1C)C(=O)N1CCCC(N1)C(=O)OCC(C)(C)C2` (configuration not stated), the viability, T/C by setting is: (compound 0.000949 µM) 117% [middle of 8 runs]; (compound 0.003 µM) 99.9% [middle of 7 runs]; (compound 0.00949 µM) 73.3% [middle of 8 runs]; (compound 0.03 µM) 52.7% [middle of 8 runs]; (compound 0.0949 µM) 39.1% [middle of 8 runs]; (compound 0.3 µM) 39.4% [middle of 8 runs]. Moreover, the IC50 under setting [1] is 35.9 nM [middle of 8 runs].
In the case of `CCn1c(-c2cccnc2C(C)OC)c2c3cc(ccc31)N1CCOC(CC(NC(=O)C(C(C)C)N(C)C(=O)C3(F)CCN(C(=O)C#CC(C)(C)N(C)C)CC3)C(=O)N3CCCC(N3)C(=O)OCC(C)(C)C2)C1` (configuration not stated), the viability, T/C reads like this: (compound 0.000949 µM) 107% [middle of 8 runs]; (compound 0.003 µM) 99.7% [middle of 8 runs]; (compound 0.00949 µM) 90.7% [middle of 8 runs]; (compound 0.03 µM) 90.4% [middle of 8 runs]; (compound 0.0949 µM) 85.9% [middle of 8 runs]; (compound 0.3 µM) 83.2% [middle of 8 runs]. Besides, the IC50 under setting [1] was more than 300 nM.
Turning to `Nc1ccn(C2OC(CO)C(O)C2(F)F)c(=O)n1` (configuration not stated), the viability, T/C is 101% [middle of 4 runs] (compound 0.00316 µM); 13.5% [middle of 4 runs] (compound 0.0316 µM); 9.12% [middle of 4 runs] (compound 0.1 µM); 9.08% [middle of 4 runs] (compound 0.316 µM); 8.33% [middle of 4 runs] (compound 1 µM).
Take `O=C(c1ccc(F)c(F)c1Nc1ccc(I)cc1F)N1CC(O)([C@@H]2CCCCN2)C1`: the viability, T/C is, setting by setting: (compound 0.00316 µM) 102% [middle of 4 runs]; (compound 0.01 µM) 105% (2×) and 96.9% and 97.5%; (compound 0.0316 µM) 102% [middle of 4 runs].

The values above are taken from PubChem BioAssay AID2060892 (Molecular Pharmacology Branch, DTP, NCI, 2025).
